Where two headings read alike, the source gives them in different places.
What was measured:
[1] = tested on: Key Broadleaf Weed and Crop Species; test: Post-emergent Test II herbicidal activity (Table 5); type: in vivo; settings: post-emergence, 336 h, 14 days after application; for pest or weed control at 70 g/ha: application rate 70 g ai/ha; for pest or weed control at 140 g/ha: application rate 140 g ai/ha
How it was run: (§1)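 Percent injury, 0 (none) to 100 (complete kill), was judged visually 14 d after spraying young plants at the first or second true leaf stage with compound in an acetone/DMSO aqueous carrier at 187 L/ha. Plants were kept in a greenhouse at 23–29 °C by day.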

[2] = tested on: Key Grass and Sedge Weeds as well as Grass Crops; test: Post-emergent Test II herbicidal activity (Table 6); type: in vivo; settings: post-emergence, 336 h; for pest or weed control at 70 g/ha: 70 g ai/ha; for pest or weed control at 140 g/ha: 140 g ai/ha
How it was run: as §1

[3] = ABUTH: velvetleaf (Abutilon theophrasti), read-out: Visual Growth Reduction (%) 14 Days After Application, ABUTH
[4] = AMARE: redroot pigweed (Amaranthus retroflexus), read-out: Visual Growth Reduction (%) 14 Days After Application, AMARE
[5] = BRSNN: oilseed-rape, canola (Brassica napus), read-out: Visual Growth Reduction (%) 14 Days After Application, BRSNN
[6] = CHEAL: lambsquarters (Chenopodium album), read-out: Visual Growth Reduction (%) 14 Days After Application, CHEAL
[7] = EPHHL: wild poinsettia (Euphorbia heterophylla), read-out: Visual Growth Reduction (%) 14 Days After Application, EPHHL
[8] = HELAN: sunflower (Helianthus annuus), read-out: Visual Growth Reduction (%) 14 Days After Application, HELAN
[9] = VIOTR: wild pansy (Viola tricolor), read-out: Visual Growth Reduction (%) 14 Days After Application, VIOTR
[10] = CYPES: yellow nutsedge (Cyperus esculentus), read-out: Visual Growth Reduction (%) 14 Days After Application, CYPES
[11] = DIGSA: crabgrass (Digitaria sanguinalis), read-out: Visual Growth Reduction (%) 14 Days After Application, DIGSA
[12] = ECHCG: barnyardgrass (Echinochloa crus-galli), read-out: Visual Growth Reduction (%) 14 Days After Application, ECHCG
[13] = ORYSA: rice (Oryza sativa), crop, read-out: Visual Growth Reduction (%) 14 Days After Application, ORYSA
[14] = SETFA: giant foxtail (Setaria faberi), read-out: Visual Growth Reduction (%) 14 Days After Application, SETFA
[15] = SORVU: grain sorghum (Sorghum vulgare), read-out: Visual Growth Reduction (%) 14 Days After Application, SORVU
[16] = TRZSS (wheat, Triticum aestivum), crop, read-out: Visual Growth Reduction (%) 14 Days After Application, TRZSS
[17] = ZEAMX: maize, corn (Zea mays), crop, read-out: Visual Growth Reduction (%) 14 Days After Application, ZEAMX

Compound	pest or weed control at 70 g/ha [1, 3]	pest or weed control at 140 g/ha [1, 3]	pest or weed control at 70 g/ha [1, 4]	pest or weed control at 140 g/ha [1, 4]	pest or weed control at 70 g/ha [1, 5]	pest or weed control at 140 g/ha [1, 5]	pest or weed control at 70 g/ha [1, 6]	pest or weed control at 140 g/ha [1, 6]	pest or weed control at 70 g/ha [1, 7]	pest or weed control at 140 g/ha [1, 7]	pest or weed control at 70 g/ha [1, 8]	pest or weed control at 140 g/ha [1, 8]	pest or weed control at 70 g/ha [1, 9]	pest or weed control at 140 g/ha [1, 9]	pest or weed control at 70 g/ha [2, 10]	pest or weed control at 140 g/ha [2, 10]	pest or weed control at 70 g/ha [2, 11]	pest or weed control at 140 g/ha [2, 11]	pest or weed control at 70 g/ha [2, 12]	pest or weed control at 140 g/ha [2, 12]	further results
COC(=O)c1nc(-c2ccc(C#N)cc2)c(F)c(N)c1Cl [Compound 142]	95 to 100%	95 to 100%	95 to 100%	95 to 100%	0 to 29%	0 to 29%	95 to 100%	95 to 100%	95 to 100%	95 to 100%	95 to 100%	95 to 100%	75 to 84%	85 to 94%	75 to 84%	85 to 94%	60 to 74%	60 to 74%	75 to 84%	85 to 94%	pest or weed control at 70 g/ha [2, 13]: 0 to 29%; pest or weed control at 140 g/ha [2, 13]: 0 to 29%; pest or weed control at 70 g/ha [2, 14]: 0 to 29%; pest or weed control at 140 g/ha [2, 14]: 0 to 29%; pest or weed control at 70 g/ha [2, 15]: 45 to 59%; pest or weed control at 140 g/ha [2, 15]: 45 to 59%; pest or weed control at 70 g/ha [2, 16]: 0 to 29%; pest or weed control at 140 g/ha [2, 16]: 30 to 44%; pest or weed control at 70 g/ha [2, 17]: 45 to 59%; pest or weed control at 140 g/ha [2, 17]: 60 to 74%
Nc1c(F)c(-c2ccc(OC(F)F)cc2)nc(C(=O)O)c1Cl [Compound 143]	85 to 94%	85 to 94%	60 to 74%	85 to 94%	60 to 74%	85 to 94%	85 to 94%	85 to 94%	95 to 100%	95 to 100%	60 to 74%	85 to 94%	30 to 44%	30 to 44%	85 to 94%	85 to 94%	75 to 84%	75 to 84%	95 to 100%	95 to 100%	pest or weed control at 70 g/ha [2, 13]: 0 to 29%; pest or weed control at 140 g/ha [2, 13]: 30 to 44%; pest or weed control at 70 g/ha [2, 14]: 75 to 84%; pest or weed control at 140 g/ha [2, 14]: 75 to 84%; pest or weed control at 70 g/ha [2, 15]: 85 to 94%; pest or weed control at 140 g/ha [2, 15]: 85 to 94%; pest or weed control at 70 g/ha [2, 16]: 45 to 59%; pest or weed control at 140 g/ha [2, 16]: 60 to 74%; pest or weed control at 70 g/ha [2, 17]: 85 to 94%; pest or weed control at 140 g/ha [2, 17]: 85 to 94%

Source: US9113629B2, “4-amino-6-(4-substituted-phenyl)-picolinates and 6-amino-2-(4-substituted-phenyl)-pyrimidine-4-carboxylates and their use as herbicides” (DOW AGROSCIENCES LLC, priority 2013, dated 2015)
